For one series, the system named is σ receptors. Particulars: literature; cited from earlier work.
Another series deals with dopamine D-2 receptor. The conditions noted are these: literature; cited from earlier work.
The conditions of series [1]: clinical trials; cited from earlier work.
For series [2] the following is noted: humans; cited from earlier work.
A further series addresses T1, SIGMA RECEPTOR (Cavia porcellus, UniProt Q60492).
T1 construct: Two milliter aliquots of the brain membrane preparation, containing 1.7 mg of protein; tissue Pel-Freeze (Rogers, Arkansas); host or cells: guinea-pig brains plus cerebella, membranes
Kind of series: Sigma receptor binding assay ([3H]-d-SKF-10,047 displacement, brain membranes). On the set-up: species or system guinea-pig (male Hartley). Particulars: for SIGMA RECEPTOR SLOPE: Table 1, slope of dose response curve. The method, boiled down: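 Guinea-pig brain-plus-cerebellum membranes (1.7 mg protein) in 0.1 M Tris-HCl pH 7.4 incubated 1 h at 23°C with 2 nM [3H]-d-SKF-10,047 and competitor, quadruplicate. Nonspecific binding defined by 0.1 mM d-SKF-10,047; bound ligand collected on GF/C filters, counted by liquid scintillation.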

The conditions of series [3]: literature; cited from earlier work.
For a further series, the target named is PCP RECEPTOR
Kind of series: PCP receptor binding assay ([3H]-TCP displacement, brain membranes). On the set-up: species or system guinea-pig (male Hartley). Put shortly: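 Guinea-pig brain-plus-cerebellum membranes (1.7 mg protein) were incubated 1 h at 23° C with competitor. σ sites used 2 nM [3H]-d-SKF-10,047 in 0.1 M Tris pH 7.4, with 0.1 mM d-SKF-10,047 for nonspecific binding. PCP sites used 1 nM [3H]-TCP in 5 mM Tris pH 7.4, with 0.1 mM phencyclidine for nonspecific binding. Filter-bound radioactivity was counted.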

The test system of a further series is σ receptor. Particulars: rat spinal cord and brain membranes; cited from earlier work.
Series [4] has as its system postsynaptic dopamine receptors. The conditions noted are these: mesolimbic area; cited from earlier work.
In series [5] the test system is climbing behavior in mice. The conditions noted are these: cited from earlier work.
Series [6] deals with conditioned avoidance responses in rat. Particulars: cited from earlier work.
The subject of another series is σ binding sites. Particulars: microinjections into red nucleus and substantia nigra; cited from earlier work.
The next series concerns MUSCARINIC ACETYLCHOLINE
The format is binding, guinea-pig. From the text:
(§1) This example illustrates the testing of compounds of this invention in dopamine D2, 5-HT2, muscarinic acetylcholine, α1 -adrenoceptor and β-adrenoceptor receptor assays. The receptor assay methods are described in Eur. J. Pharmacol., 155:345 (1988) except that in the β-adrenoceptor assay, [^125 I]-pindolol was used instead of [^3 H] dihydroalprenolol.
(§2) In this study, guinea-pig brains were used for binding studies. Homogenization and centrifugation procedures for preparation of brain membranes for each receptor assay were the same as described in Example 4 for the σ and PCP receptors. However, brain regions, tissue contents, and buffers may differ depending on the assay. Conditions of binding assays for various receptors were as follows:
For muscarinic acetylcholine assay, […]) [^3 H]-quinuclidinyl benzylate ([^3 H]-QNB) was incubated in a 2 ml assay (50 mM Tris-HCl, pH 7.4) for 2 hours at 23° C. with membranes from 2 mg of whole brain minus cerebellum.
(§3) Filtration and washing conditions were the same as described above for the σ receptor assay. Nonspecific binding for each receptor was defined by the inclusion of 1 μM haloperidol for dopamine D2, 1 μM haloperidol for 5-HT2, 10 μM scopolamine for muscarinic acetylcholine, 10 μM prazosin for α1 -adrenoceptor, and 0.2 μM 1-propranolol for β-adrenoceptor. Retained radioactivity was measured by liquid scintillation spectrometry except for ^125 I-pindolol which was measured by the LKB gamma counter.
(§4) Programs in Biomed. 17:107 (1983)].

For another series, the target named is β-ADRENOCEPTOR
Kind of series: β-adrenoceptor binding ([125I]-pindolol). On the set-up: species or system guinea-pig. The conditions noted are these: Table 4; IC50 and nM only stated in text; read-out: β-ADRENOCEPTOR
Description: as §1, §2
For β-adrenoceptor, [^125 I]-pindolol (0.05 nM) was incubated in a 1 ml assay (50 mM Tris-HCl, pH 7.4) for 1 hr at 23° C. with membranes from 1 mg of whole brain minus cerebellum.
as §3, §4

The next series concerns the target T2, DOPAMINE D2 (Cavia porcellus, UniProt H0VE83).
T2 construct: printed as cerebral cortical tissue, [3H]spiroperidol, haloperidol blank
Kind of series: Dopamine D2 receptor binding ([3H]-spiroperidol). On the set-up: species or system guinea-pig.
Description: as §1, §2
For dopamine D2 assay, 3 H-spiroperidol (0.15 nM) was incubated in a 2 ml assay (50 mM Tris-HCl, pH 7.4) for 2 hours at 23° C. with membranes from 12 mg of cerebral cortical tissue.
as §3, §4

The next series deals with 5-HT2 (Cavia porcellus, UniProt A0A286Y537). Kind of series: 5-HT2 receptor binding. Also noted: species or system guinea-pig.
Description: as §1, §2, §3, §4

The target in a further series is α1 -ADRENOCEPTOR
Kind of series: α1-adrenoceptor binding ([3H]-prazosin). Also noted: species or system guinea-pig. Particulars: Table 4; IC50 and nM only stated in text; read-out: α1 -ADRENOCEPTOR
Description: as §1, §2
For α1 -adrenoceptor assay, [^3 H]-prazosin (0.4 nM) was incubated in a 1 ml assay (50 mM Tris-HCl, pH 7.4) for 1 hour at 23° C. with membranes from 1 mg of whole brain minus cerebellum.
as §3, §4

Where [7] appears, read: Table 1, mean ± error (n), read-out: PCP RECEPTOR IC50.

The text below walks through data of patent US5086054A, “Novel arylcycloalkanepolyalkylamines” (SRI International, priority 1990, dated 1992).

Entries after “also recorded” stand apart in the source; their conditions may differ. Like-named read-outs stand apart in the source and are kept apart here.

T1 sequence (Q60492 whole entry): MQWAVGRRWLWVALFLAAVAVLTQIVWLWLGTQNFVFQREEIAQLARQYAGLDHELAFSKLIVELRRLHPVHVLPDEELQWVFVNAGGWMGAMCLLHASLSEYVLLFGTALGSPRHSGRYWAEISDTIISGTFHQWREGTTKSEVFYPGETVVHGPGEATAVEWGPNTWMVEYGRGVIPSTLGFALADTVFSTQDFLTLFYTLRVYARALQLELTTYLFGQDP
Chain of 5-HT2 (A0A286Y537 1-470): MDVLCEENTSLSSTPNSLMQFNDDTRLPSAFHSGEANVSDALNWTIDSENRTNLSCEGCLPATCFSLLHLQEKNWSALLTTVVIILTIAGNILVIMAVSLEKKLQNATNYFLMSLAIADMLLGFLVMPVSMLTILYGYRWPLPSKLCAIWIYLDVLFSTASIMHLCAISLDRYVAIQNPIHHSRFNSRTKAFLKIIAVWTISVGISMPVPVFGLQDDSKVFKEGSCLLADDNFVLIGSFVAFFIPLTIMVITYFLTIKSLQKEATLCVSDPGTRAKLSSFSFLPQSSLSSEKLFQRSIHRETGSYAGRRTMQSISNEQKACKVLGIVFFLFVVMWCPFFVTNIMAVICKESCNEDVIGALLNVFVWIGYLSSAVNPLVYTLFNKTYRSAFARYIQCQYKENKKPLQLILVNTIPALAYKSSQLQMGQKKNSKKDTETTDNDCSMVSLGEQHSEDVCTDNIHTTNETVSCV
T2 sequence (H0VE83 entry or part of it): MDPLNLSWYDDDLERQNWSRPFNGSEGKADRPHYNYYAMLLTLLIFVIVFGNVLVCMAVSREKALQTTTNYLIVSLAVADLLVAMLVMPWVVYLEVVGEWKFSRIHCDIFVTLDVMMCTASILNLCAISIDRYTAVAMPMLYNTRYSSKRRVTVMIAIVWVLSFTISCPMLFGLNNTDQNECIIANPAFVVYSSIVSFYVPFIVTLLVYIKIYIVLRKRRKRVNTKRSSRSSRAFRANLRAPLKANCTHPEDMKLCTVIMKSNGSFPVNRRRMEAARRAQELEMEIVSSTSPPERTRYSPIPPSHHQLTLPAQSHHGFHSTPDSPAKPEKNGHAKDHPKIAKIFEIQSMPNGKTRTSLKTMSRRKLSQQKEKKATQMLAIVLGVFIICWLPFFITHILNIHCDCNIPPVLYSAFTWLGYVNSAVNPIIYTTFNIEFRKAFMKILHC

On to `O=C(CCCN1CCC(O)(c2ccc(Cl)cc2)CC1)c1ccc(F)cc1` [haloperidol, 4-[4-(p-chlorophenyl)-4-hydroxypiperidino]-4'-fluorobutyrophenone], for which the “affinity / binding at σ receptors (in words)” value (from here on “affinity / binding”) in the series on σ receptors is “high affinity for the σ site; also recorded: bind to σ receptors”. For the same compound, the “dopamine D-2 receptor antagonism (in words)” value in the series on dopamine D-2 receptor is “potent dopamine D-2 receptor antagonist”.
For the compound `CCN1CCC[C@H]1CNC(=O)c1c(OC)ccc(Br)c1OC` [remoxipride], the “affinity / binding” value in the series with σ receptors is “potent and selective σ receptor ligands”. Besides, the clinical antipsychotic effects result in [1] is recorded as “display clinical antipsychotic effects”.
For the compound `c1ccc(C2(N3CCCCC3)CCCCC2)cc1` [Compound 1, 1-(1-phenylcylohexyl)piperidine, reference compound], the psychotic reactions result in series [2] is “causes psychotic reactions such as hallucinations, thought disorders and paranoid delusions similar to an acute schizophrenic episode”. For the same compound, the “SIGMA RECEPTOR SLOPE” value at SIGMA RECEPTOR is on record as 0.95 ± 0.12. For the same compound, the “motor and behavioral effects” value in series [3] is “alter gross motor activity and spatial alternation performance and to induce stereotypic movements”. Moreover, the IC50 at PCP RECEPTOR (setting [7]) is 45 ± 5 nM.
In the case of `C[C@@H]1CN(CCCn2c3ccccc3c3ccccc32)C[C@H](C)N1` [rimcazole, cis-9-[3-(3,5-dimethyl-1-piperazinyl)propyl]carbozole], in the series on σ receptors, the “affinity / binding” value was “potent and selective σ receptor ligands; also recorded: high-affinity, σ-selective”. Moreover, the clinical antipsychotic effects result in series [1] is on record as “display clinical antipsychotic effects”. For the same compound, the “inhibition of specific binding of NAN” value in the series with σ receptor is on record as “competitively inhibit specific binding of the σ receptor ligand NAN”. Further, the “action at postsynaptic dopamine receptors” value in series [4] was “did not exert its action at the level of postsynaptic dopamine receptors in the mesolimbic area”. In addition, the cataleptic state result in [5] (associated with EPS) was “without producing the cataleptic state”. Further, the climbing behavior result in series [5] is on record as “antagonize climbing behavior in mice”. In addition, the conditioned avoidance responses entry in series [6] is on record as “did not influence conditioned avoidance responses in rat”.
Take `Cc1ccccc1NC(=N)Nc1ccccc1C` [DTG, 1,3-di-o-tolylguanidine]: the “affinity / binding” value with σ receptors was “bind to σ receptors”. The contralateral circling behavior entry in the series with σ binding sites is listed as “produce vigorous contralateral circling behavior”.
In the case of `CN(C)CCOC(=O)C1(c2ccccc2)CCCCC1.Cl` [Compound 19, 2-(Dimethylamino)ethyl 1-phenylcyclohexane-1-carboxylate hydrochloride], the “potency at muscarinic acetylcholine receptors (in words)” value in the series on MUSCARINIC ACETYLCHOLINE is given as “quite potent at muscarinic acetylcholine receptors”. Also, the IC50 with MUSCARINIC ACETYLCHOLINE (Table 4, IC50 and nM only stated in text, read-out: MUSCARINIC ACETYLCHOLINE) was determined as 750 ± 36 nM; in the series on MUSCARINIC ACETYLCHOLINE (read-out: potency (IC50) at muscarinic acetylcholine receptor) it was 750 nM; at β-ADRENOCEPTOR it was 85700 nM; on 5-HT2 (Table 4, IC50 and nM only stated in text, read-out: 5-HT2), 1410 nM; on α1 -ADRENOCEPTOR, 29000 nM; at SIGMA RECEPTOR (Table 4, IC50 and nM only stated in text, read-out: SIGMA) it was 9.2 ± 0.8 nM. Moreover, the IC50 on SIGMA RECEPTOR (read-out: IC50 at σ receptors) was below 100 nM; at PCP RECEPTOR (setting [7]) it was 21700 nM; on PCP RECEPTOR (Table 4, IC50 and nM only stated in text, read-out: PCP), 21700 nM. The “potency at dopamine D-2 receptors (in words)” value at DOPAMINE D2 is “moderate potencies at dopamine D-2 and 5-HT2 receptors”. Moreover, on 5-HT2, the “potency at 5-HT2 receptors (in words)” value was “moderate potencies at dopamine D-2 and 5-HT2 receptors”. Also, the “SIGMA RECEPTOR SLOPE” value at SIGMA RECEPTOR came out at 0.54 ± 0.02. For the same compound, the “potency at σ receptors (in words)” value on SIGMA RECEPTOR (hydrochloride) is “σ receptor potency increased; also recorded: very potent in the σ assay; also recorded: very high”. Moreover, the “potency at PCP receptors (in words)” value in the series on PCP RECEPTOR (hydrochloride) was “inactive in the PCP assay; also recorded: very weak or inactive in the PCP assay; also recorded: negligible; also recorded: low potency at PCP receptors”.
